Measured values as given in article PMC5458078, “Global mapping of CARM1 substrates defines enzyme specificity and substrate recognition” (Nature Communications, 2017).
Like-named read-outs stand apart in the source and are kept apart here.

Columns and labels:
MCF7 CARM1 KO cells = assay: Quantitative MS of ADMA-containing peptides in MCF7 CARM1 KO cells expressing CARM1 28-608 or CARM1 140-608, and in CARM1 KO; type: cell-based, human
MCF7 cells = assay: Quantitative nanoLC-MS/MS (TMT) of ADMA-containing peptides, CARM1 KO vs parental; type: cell-based, human; set-up: Fold change KO/WT: scale not given here
[1] = ratio on log2 scale, mean of 3 replicates
[2] = MCF7, CARM1 knockout vs wild type, n = 3 each
[3] = CARM1 140-608 vs WT, mean of 3 replicates (log2 scale)
[4] = KO vs WT, mean of 3 replicates (log2 scale)
[5] = MCF7, CARM1 KO (KO1-KO3) vs wild type (WT1-WT3)
[6] = CARM1 140-608 versus WT, difference of mean log2 values
[7] = CARM1 KO versus WT, difference of mean log2 values
[8] = CARM1 KO vs wild type MCF7 cells, 3 biological replicates each
[9] = difference of log2 means, CARM1 140-608 vs WT
[10] = difference of log2 means, KO vs WT
[11] = ADMA-containing peptide, CARM1 knockout (KO) vs wild type (WT) MCF7 cells, 6-plex TMT experiment #1, three biological replicates each, sheet "MCF7"
[12] = MCF7, CARM1 KO vs WT, three biological replicates each
[13] = CARM1 140-608 versus WT, mean of three replicates (log2)
[14] = KO versus WT, mean of three replicates (log2)
[15] = ADMA-containing peptide, MCF7, CARM1 knockout (KO1-3) vs wild type (WT1-3), TMT 6-plex experiment #1
[16] = log2 scale ratio, mean of n = 3
[17] = mean, CARM1 140-608 versus WT (log2 scale)
[18] = mean, CARM1 KO versus WT (log2 scale)

SAPrLNTTNAWGAAPPSLGSQPLYR was tested, and the “CARM1 140-608/WT” value (MCF7 CARM1 KO cells; [1]) was -0.6132, the KO/WT (MCF7 CARM1 KO cells; [1]) was -1.593 and the “Fold change KO/WT” value (MCF7 cells; [2]) was -1.593.

For ErLALAGPQLrPEMSYPDR, the “CARM1 140-608/WT” value (MCF7 CARM1 KO cells; [3]) was -2.2623, the KO/WT (MCF7 CARM1 KO cells; [4]) was -2.989 and the “Fold change KO/WT” value (MCF7 cells; [5]) was -2.989.

With SLCASTLTVSSGSSrGSLASSrGSLASSR the “CARM1 140-608/WT” value (MCF7 CARM1 KO cells; [6]) was -0.3572, the KO/WT (MCF7 CARM1 KO cells; [7]) was -0.04724 and the “Fold change KO/WT” value (MCF7 cells; [8]) was -0.6221.

For RGPLSQNGSFGPSPVSGGECSPPLTVEPPVrPLSATLNR, the “CARM1 140-608/WT” value (MCF7 CARM1 KO cells; [9]) was -1.692, the KO/WT (MCF7 CARM1 KO cells; [10]) was -2.59 and the “Fold change KO/WT” value (MCF7 cells; [11]) was -2.59.

In the case of “GPPPFPGVPLMSTPMGGPVPPPIrYGPPPQLCGPFGPrPLPPPFGPGMrPPLGLREFAPGVPPGrR”, the “CARM1 140-608/WT” value (MCF7 CARM1 KO cells; [9]) is reported as -1.1204, the KO/WT (MCF7 CARM1 KO cells; [10]) is reported as -2.997 and the “Fold change KO/WT” value (MCF7 cells; [11]) is reported as -2.997.

For “MGTPVPRPPQDMGQIGVrTPLGPrVAAPVGPVGPTPTVLPMGAPVPRPR”, the “CARM1 140-608/WT” value (MCF7 CARM1 KO cells; [3]) was -1.595, the KO/WT (MCF7 CARM1 KO cells; [4]) was -3.449 and the “Fold change KO/WT” value (MCF7 cells; [5]) was -3.424.

QIrFSQGQQLVTK was tested, and the “CARM1 140-608/WT” value (MCF7 CARM1 KO cells; [1]) was -1.837, the KO/WT (MCF7 CARM1 KO cells; [1]) was -2.537 and the “Fold change KO/WT” value (MCF7 cells; [12]) was -2.537.

GRPSSPrTPLYLQPDAYGSLDR was tested, and the “CARM1 140-608/WT” value (MCF7 CARM1 KO cells; [13]) was -1.266, the KO/WT (MCF7 CARM1 KO cells; [14]) was -1.386 and the “Fold change KO/WT” value (MCF7 cells; [5]) was -1.386.

In the case of LQEVSLrQGMr, the “CARM1 140-608/WT” value (MCF7 CARM1 KO cells; [1]) is reported as 0.07113, the KO/WT (MCF7 CARM1 KO cells; [1]) is reported as -0.8557 and the “Fold change KO/WT” value (MCF7 cells; [12]) is reported as -0.8557.

In the case of QLrMQLQQrLQGQQFLNQSR, the “CARM1 140-608/WT” value (MCF7 CARM1 KO cells; [13]) is reported as -0.1108, the KO/WT (MCF7 CARM1 KO cells; [14]) is reported as -1.926 and the “Fold change KO/WT” value (MCF7 cells; [11]) is reported as -2.764.

In the case of GQPrTWLQSPV, the “CARM1 140-608/WT” value (MCF7 CARM1 KO cells; [3]) is reported as -2.79, the KO/WT (MCF7 CARM1 KO cells; [4]) is reported as -3.17 and the “Fold change KO/WT” value (MCF7 cells; [5]) is reported as -3.17.

In the case of TDGFAEAIHSPQVAGVPrFR, the “CARM1 140-608/WT” value (MCF7 CARM1 KO cells; [6]) is reported as -1.17, the KO/WT (MCF7 CARM1 KO cells; [7]) is reported as -1.53 and the “Fold change KO/WT” value (MCF7 cells; [15]) is reported as -1.53.

With GrFPGAVPGGDrFPGPAGPGGPPPPFPGNLIK the “CARM1 140-608/WT” value (MCF7 CARM1 KO cells; [1]) was -1.24, the KO/WT (MCF7 CARM1 KO cells; [1]) was -2.782 and the “Fold change KO/WT” value (MCF7 cells; [2]) was -2.782.

In the case of LGHDPYrLGHDAYrLGQDPYrLGHDPYR, the “CARM1 140-608/WT” value (MCF7 CARM1 KO cells) is reported as -1.775, the KO/WT (MCF7 CARM1 KO cells) is reported as -1.602 and the “Fold change KO/WT” value (MCF7 cells; [15]) is reported as -1.602.

“APESPPSADPALVAGPAEEAECPPPRQPQPAQNVLAAPrLR” was tested, and the “CARM1 140-608/WT” value (MCF7 CARM1 KO cells; [13]) was -0.5501, the KO/WT (MCF7 CARM1 KO cells; [14]) was -1.431 and the “Fold change KO/WT” value (MCF7 cells; [11]) was -1.431.

APGPrGSYLGGYSAGrGIYSR was tested, and the “CARM1 140-608/WT” value (MCF7 CARM1 KO cells; [3]) was 0.2879, the KO/WT (MCF7 CARM1 KO cells; [4]) was 0.5206 and the “Fold change KO/WT” value (MCF7 cells; [5]) was 0.2541.

With SAPWNSFLPPPPPMPGPrLGPGKPGLK the “CARM1 140-608/WT” value (MCF7 CARM1 KO cells; [3]) was -1.2, the KO/WT (MCF7 CARM1 KO cells; [4]) was -1.936 and the “Fold change KO/WT” value (MCF7 cells; [15]) was -1.936.

With GPVGQALPrPQAPPrLQSLMGTVQQGAQSWQQR the “CARM1 140-608/WT” value (MCF7 CARM1 KO cells; [9]) was -1.639, the KO/WT (MCF7 CARM1 KO cells; [10]) was -3.859 and the “Fold change KO/WT” value (MCF7 cells; [11]) was -3.859.

With YCLTAPNYrLK the “CARM1 140-608/WT” value (MCF7 CARM1 KO cells; [16]) was -1.503, the KO/WT (MCF7 CARM1 KO cells; [16]) was -1.727 and the “Fold change KO/WT” value (MCF7 cells; [15]) was -0.9585.

In the case of GGAPFQFGGQrRPLLSQLK, the “CARM1 140-608/WT” value (MCF7 CARM1 KO cells; [1]) is reported as 0.1701, the KO/WT (MCF7 CARM1 KO cells; [1]) is reported as 0.08114 and the “Fold change KO/WT” value (MCF7 cells; [2]) is reported as -0.3698.

“TATVTIrPNTSGSGGTTSNSQVITGPQIrPGMTVIrTPLQQSTLGK” was tested, and the “CARM1 140-608/WT” value (MCF7 CARM1 KO cells; CARM1 140-608 vs WT, mean of 3 replicates, log2) was 1.9774, the KO/WT (MCF7 CARM1 KO cells; KO vs WT, mean of 3 replicates, log2) was -1.958 and the “Fold change KO/WT” value (MCF7 cells; [12]) was -2.17.

For STNPELPPrLGPVPSGLSQK, the “CARM1 140-608/WT” value (MCF7 CARM1 KO cells; [1]) was -2.1, the KO/WT (MCF7 CARM1 KO cells; [1]) was -2.804 and the “Fold change KO/WT” value (MCF7 cells; [2]) was -2.804.

For SGFAATSQPGPrLPFIQHSQNPrFYHK, the “CARM1 140-608/WT” value (MCF7 CARM1 KO cells; [17]) was -0.6332, the KO/WT (MCF7 CARM1 KO cells; [18]) was -3.722 and the “Fold change KO/WT” value (MCF7 cells; [2]) was -3.247.

With SGSGNFGGGrGGGFGGNDNFGrGGNFSGrGGFGGSR the “CARM1 140-608/WT” value (MCF7 CARM1 KO cells; [17]) was 0.1031, the KO/WT (MCF7 CARM1 KO cells; [18]) was 0.7867 and the “Fold change KO/WT” value (MCF7 cells; [2]) was 0.2137.

In the case of KLFIGGLSFETTDDSLr, the “CARM1 140-608/WT” value (MCF7 CARM1 KO cells; [17]) is reported as -0.2797, the KO/WT (MCF7 CARM1 KO cells; [18]) is reported as 0.2164 and the “Fold change KO/WT” value (MCF7 cells; [2]) is reported as -0.1026.

For GPrFEGNrPDGPrPrYEGHPAEGTK, the “CARM1 140-608/WT” value (MCF7 CARM1 KO cells; [6]) was -4.084, the KO/WT (MCF7 CARM1 KO cells; [7]) was -5.484 and the “Fold change KO/WT” value (MCF7 cells; [8]) was -5.083.

For APDEPQQAQVPHVWGWEVAGAPALrLQK, the “CARM1 140-608/WT” value (MCF7 CARM1 KO cells; [9]) was -2.552, the KO/WT (MCF7 CARM1 KO cells; [10]) was -3.114 and the “Fold change KO/WT” value (MCF7 cells; [11]) was -2.912.

For TPGQINLAQLrLQHMQQQVYAQK, the “CARM1 140-608/WT” value (MCF7 CARM1 KO cells; [6]) was -3.552, the KO/WT (MCF7 CARM1 KO cells; [7]) was -5.003 and the “Fold change KO/WT” value (MCF7 cells; [15]) was -4.121.

In the case of GLPTTTQrVGVPTAVQNLAPrAAVAAAAPrAVAPYK, the “CARM1 140-608/WT” value (MCF7 CARM1 KO cells; [13]) is reported as -1.934, the KO/WT (MCF7 CARM1 KO cells; [14]) is reported as -2.638 and the “Fold change KO/WT” value (MCF7 cells; [11]) is reported as -2.96.

In the case of QPPPLQQQArFIQPrPTLNQPPPPLIrPANSMPPR, the “CARM1 140-608/WT” value (MCF7 CARM1 KO cells; [3]) is reported as 1.096, the KO/WT (MCF7 CARM1 KO cells; [4]) is reported as -1.373 and the “Fold change KO/WT” value (MCF7 cells; [5]) is reported as -1.373.

For QGSIGLYTQNQPLPAGGPrVDPYrPVrLPMQK, the “CARM1 140-608/WT” value (MCF7 CARM1 KO cells; [9]) was -2.266, the KO/WT (MCF7 CARM1 KO cells; [10]) was -3.357 and the “Fold change KO/WT” value (MCF7 cells; [11]) was -2.292.

In the case of GLGPGGTPFPGQGPPQrPrFYPVSEDPHR, the “CARM1 140-608/WT” value (MCF7 CARM1 KO cells; [9]) is reported as -1.244, the KO/WT (MCF7 CARM1 KO cells; [10]) is reported as -1.165 and the “Fold change KO/WT” value (MCF7 cells; MCF7 CARM1 knockout vs wild type, 3 biological replicates each, values are on log2 scale) is reported as -1.165.

In the case of “HQQLQQMrMQQPPAPVPTTTTTTQQHPrQAAPQMLQQQPPrLISVQTMQR”, the “CARM1 140-608/WT” value (MCF7 CARM1 KO cells; [6]) is reported as -0.9301, the KO/WT (MCF7 CARM1 KO cells; [7]) is reported as -2.355 and the “Fold change KO/WT” value (MCF7 cells; [15]) is reported as -1.659. For the same substance, the “Fold change KO/WT” value (MCF7 cells; [8]) was -1.574.
